{"source": "ChEMBL document CHEMBL1133352", "about": "“Synthesis and endothelin receptor binding activity of synthetic analogues of RES-1149-2” (Bioorg Med Chem Lett, 2000)", "key": {"[1]": {"target": "T1, Endothelin receptor type B (Homo sapiens, UniProt P24530)", "T1 sequence (P24530 whole entry)": "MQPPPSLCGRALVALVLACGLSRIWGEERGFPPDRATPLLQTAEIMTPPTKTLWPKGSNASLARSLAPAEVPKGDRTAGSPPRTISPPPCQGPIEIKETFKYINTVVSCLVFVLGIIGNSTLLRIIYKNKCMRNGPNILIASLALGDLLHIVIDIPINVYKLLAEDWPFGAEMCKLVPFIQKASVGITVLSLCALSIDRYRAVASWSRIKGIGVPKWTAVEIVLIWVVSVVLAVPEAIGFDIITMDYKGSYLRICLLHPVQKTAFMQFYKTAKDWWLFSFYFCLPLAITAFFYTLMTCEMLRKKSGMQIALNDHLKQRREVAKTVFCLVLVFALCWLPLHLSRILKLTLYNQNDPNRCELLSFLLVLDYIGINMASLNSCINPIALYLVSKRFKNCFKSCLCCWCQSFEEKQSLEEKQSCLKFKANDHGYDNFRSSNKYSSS", "assay": "Tested for binding affinity towards human Endothelin B receptor"}, "Endothelin-1 receptor": {"target": "T2, Endothelin-1 receptor (Homo sapiens, UniProt P25101)", "T2 sequence (P25101 whole entry)": "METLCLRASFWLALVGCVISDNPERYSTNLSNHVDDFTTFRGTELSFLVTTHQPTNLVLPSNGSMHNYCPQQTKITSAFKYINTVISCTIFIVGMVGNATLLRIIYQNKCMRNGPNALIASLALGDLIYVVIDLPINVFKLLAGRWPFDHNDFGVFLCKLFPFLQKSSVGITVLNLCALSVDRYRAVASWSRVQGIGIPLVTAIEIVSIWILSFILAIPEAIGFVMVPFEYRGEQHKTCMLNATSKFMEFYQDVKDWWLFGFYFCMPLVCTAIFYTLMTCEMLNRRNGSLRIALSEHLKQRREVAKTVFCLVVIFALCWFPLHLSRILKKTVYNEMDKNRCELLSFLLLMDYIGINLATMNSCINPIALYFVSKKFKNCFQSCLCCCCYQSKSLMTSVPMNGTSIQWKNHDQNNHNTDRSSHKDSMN", "assay": "Tested for binding affinity towards human Endothelin A receptor"}}}
{"smiles": "C/C=C/C=C/C(=O)O[C@@H]1C=C2COC(O)[C@]2(O)CC1", "note": "(stereo partly drawn)", "values": [{"measurement": "IC50", "setting": "[1]", "value": "> 25", "unit": "µM"}]}
{"smiles": "C/C=C/C=C/C(=O)O[C@@H]1C=C2COC(O)[C@]2(O)[C@@]2(C)CCCC(C)(C)C12", "note": "(stereo partly drawn)", "values": [{"measurement": "IC50", "setting": "[1]", "value": 148, "unit": "µM"}, {"measurement": "IC50", "setting": "Endothelin-1 receptor", "value": "> 250", "unit": "µM"}]}
{"smiles": "C/C=C/C=C/C(=O)O[C@@H]1C=C2COC(OC)[C@]2(O)CC1", "note": "(stereo partly drawn)", "values": [{"measurement": "IC50", "setting": "[1]", "value": "> 25", "unit": "µM"}, {"measurement": "IC50", "setting": "Endothelin-1 receptor", "value": 8.2, "unit": "µM"}]}
{"smiles": "C/C=C/C=C/C(=O)O[C@@H]1C=C2COC(=O)[C@]2(O)CC1", "values": [{"measurement": "IC50", "setting": "[1]", "value": "> 25", "unit": "µM"}, {"measurement": "IC50", "setting": "Endothelin-1 receptor", "value": 2.6, "unit": "µM"}]}
{"smiles": "C/C=C/C=C/C=C/C(=O)O[C@@H]1C=C2COC(O)[C@]2(O)[C@@]2(C)CCCC(C)(C)C12", "note": "(stereo partly drawn)", "values": [{"measurement": "IC50", "setting": "Endothelin-1 receptor", "value": 62, "unit": "µM"}]}
